In patent publication US20220186063A1, “BEVERAGE STRAW COATED WITH AN ACTIVE COMPOUND AND METHOD OF MANUFACTURING” (priority 2020, published 2022):

Assay: Release of THC from straw coating as water is drawn through the straw (Example 5)
Type: physicochemical
Conditions: after 220 ml of water passes through the straw over 30 minutes; composite of six straws
Description: A study was performed to determine how long it takes for […] to be released from the coating as a liquid is drawn through the coated straw, and to determine how much liquid is required to achieve the full dose of the active ingredient.
The volume of dispersion required to achieve a 10 mg dose of THC was calculated. A pipette was calibrated to ensure that it dispenses the correct amount of dispersion to achieve the desired dose, and then it was loaded with the appropriate amount of the dispersion.
The calculated amount of dispersion was injected using the pipette into PFTA sugarcane straws. The dispersion was allowed to gradually coat the inside of each straw by arranging them vertically. Care was taken to not allow the dispersion to come out of the bottom of the straws.
Straws were dried by taping them horizontally to a tray using food-grade mylar and placing the tray into a convection oven at 55° C. for approximately 60 minutes or until dispersion was visibly dry. Straws were checked every 30 minutes. Once the straws were dry, they were removed from the oven and allowed to cool.
For each straw, a syringe was affixed to the end of a prepared coated straw. The opposing end of the straw was placed in a beaker of deionized water. […]

SMILES: CCCCCc1cc(O)c2c(c1)OC(C)(C)[C@@H]1CCC(C)=C[C@@H]21 [THC, (6aR,10aR)-6,6,9-trimethyl-3-pentyl-6a,7,8,10a-tetrahydro-6H-benzo[c]chromen-1-ol]
- THC released from the coating: approximately 60%
